Experimental data reported in ChEMBL document CHEMBL1201862, “PubChem BioAssay data set” (2004).
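Interpolation was linear, between the two tested concentrations surrounding the appropriate level; five concentrations were tested over 48 hours in 96-well plates. GI50 marks 50% less growth.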 Activity calls are given as the source filed them. Rule as the data show it: active = GI50 up to about 1.1 µM and inactive = higher.

Columns and labels:
Assay in all cases: DTP human tumour cell line panel, 48 h
ACHN = test system: ACHN
SW-620 = test system: SW-620
SNB-75 = test system: SNB-75
SF-295 = test system: SF-295
MDA-MB-435 = test system: MDA-MB-435
SK-MEL-28 = test system: SK-MEL-28
T47D = test system: T47D
A549 = test system: A549
OVCAR-4 = test system: OVCAR-4
TK-10 = test system: TK-10
SF-539 = test system: SF-539
SK-OV-3 = test system: SK-OV-3
OVCAR-3 = test system: OVCAR-3
RPMI-8226 = test system: RPMI-8226
HCC 2998 = test system: HCC 2998
KM12 = test system: KM12
SNB-19 = test system: SNB-19
IGROV-1 = test system: IGROV-1
NCI-H522 = test system: NCI-H522
SF-268 = test system: SF-268

Measured: GI50

COc1ccc(/C(Nc2ccccc2)=C(\CCl)c2ccccc2)cc1OC
inactive: ACHN 31.9 µM | SW-620 46.2 µM | SNB-75 63.2 µM | SF-295 49.2 µM | MDA-MB-435 32.8 µM | SK-MEL-28 82 µM | T47D 35.5 µM | A549 44.6 µM | OVCAR-4 35.7 µM | TK-10 41.5 µM | SF-539 > 100 µM | SK-OV-3 > 100 µM | OVCAR-3 35.7 µM | RPMI-8226 21.2 µM | HCC 2998 48.1 µM | KM12 57.1 µM | SNB-19 > 100 µM | IGROV-1 > 100 µM | NCI-H522 16.7 µM | SF-268 97.1 µM

CC(=O)OC1CC2(C)C(OC(C)=O)CC1C2(C)C (stereo not given)
inactive: ACHN > 100 µM | SW-620 > 100 µM | SNB-75 > 100 µM | SF-295 > 100 µM | MDA-MB-435 > 100 µM | SK-MEL-28 > 100 µM | T47D > 100 µM | A549 > 100 µM | OVCAR-4 > 100 µM | TK-10 > 100 µM | SF-539 > 100 µM | SK-OV-3 > 100 µM | OVCAR-3 > 100 µM | RPMI-8226 > 100 µM | HCC 2998 > 100 µM | KM12 > 100 µM | SNB-19 > 100 µM | IGROV-1 > 100 µM | NCI-H522 > 100 µM | SF-268 > 100 µM

COc1ccc(-n2c(Cn3nnc(-c4cccnc4)n3)nn(C3OC(COC(=O)c4ccccc4)C(OC(=O)c4ccccc4)C3OC(=O)c3ccccc3)c2=S)cc1 (stereo not given)
inactive: ACHN > 100 µM | SW-620 > 100 µM | SNB-75 > 100 µM | SF-295 > 100 µM | MDA-MB-435 > 100 µM | SK-MEL-28 > 100 µM | T47D > 100 µM | A549 > 100 µM | OVCAR-4 > 100 µM | TK-10 > 100 µM | SF-539 > 100 µM | SK-OV-3 > 100 µM | OVCAR-3 > 100 µM | RPMI-8226 > 100 µM | HCC 2998 > 100 µM | KM12 > 100 µM | SNB-19 74 µM | IGROV-1 32.4 µM | NCI-H522 > 100 µM | SF-268 > 100 µM

CCOc1ccc(/C(C=O)=C(\Cl)c2ccc(OC)cc2)cc1
inactive: ACHN > 100 µM | SW-620 > 100 µM | SNB-75 36.6 µM | SF-295 > 100 µM | MDA-MB-435 9.4 µM | SK-MEL-28 > 100 µM | T47D 24.2 µM | A549 18.2 µM | OVCAR-4 9.82 µM | TK-10 > 100 µM | SF-539 > 100 µM | SK-OV-3 > 100 µM | OVCAR-3 > 100 µM | RPMI-8226 5.73 µM | HCC 2998 82.6 µM | KM12 56.6 µM | SNB-19 > 91.8 µM | IGROV-1 > 100 µM | NCI-H522 > 27.2 µM | SF-268 > 100 µM

CNC1=C/C(=N/C2=CC(=N/C(=C\C#N)C(C)(C)O)/OC2(C)C)OC1(C)C
inactive: ACHN 4.32 µM | SW-620 5.4 µM | SNB-75 6.76 µM | SF-295 23.9 µM | MDA-MB-435 22.6 µM | SK-MEL-28 33.2 µM | T47D 6.78 µM | A549 15.5 µM | OVCAR-4 27.2 µM | TK-10 21.3 µM | SF-539 33.1 µM | SK-OV-3 17.1 µM | OVCAR-3 32.4 µM | RPMI-8226 4.43 µM | HCC 2998 29.2 µM | KM12 13.5 µM | SNB-19 33 µM | IGROV-1 6.52 µM | NCI-H522 13 µM | SF-268 4.31 µM
